Reference: the supplement of paper PMC11208160

Assay: recombinant UMI read abundance after kanamycin selection (control-corrected) (log10(CPM+1)); higher = more efficient recombination; extreme values may be limits of the assay; sequences stand for … in AGTGCAGAGAAAATCGGCCAGTTTTCTCTGCCTGCAGTCCGCATGCCGTGGGACCCCTTGGGTTCTAACCTGTTGCCTAGATTTATGCAGCGGACTGCCTTTCTCCCAAAGTGATAAACCGG…AGGTTGGTTTCACT; site = the 11-nt donor
Procedure, shortened: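 In a pooled Escherichia coli screen for the IS621 bridge recombinase, donor and donor-binding-loop pairs were each placed with a 12-nt UMI on a plasmid bearing a promoterless kanamycin gene. This library was co-electroporated with a target plasmid encoding a fixed target and T7-inducible recombinase, and cells were plated either on IPTG (0.07 mM) plus kanamycin or without selection, in two replicates each. Recombinant UMIs were PCR-amplified across the donor–target junction and sequenced, and counts were converted to CPM, averaged over replicates, scaled by control-derived factors and reported as log10(CPM+1).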

Row | Sequence | recombinant UMI read abundance (log10)
1 | CAGTCCTCATGGACCGGTTTTCCCGGTAATCCGTATTTGAA (site CAGTCCTCTTT) | 1.96
2 | CAGTCGACATGGACCGGTTTTCCCGGTAATCCGTATTTGAG (site CAGTCGACTCA) | 0.00421
3 | CAGTCGACATGGACCGGTTTTCCCGGTAATCCGTATTTGAG (site CAGTCGACTCC) | 0.0115
4 | CAGTCGACATGGACCGGTTTTCCCGGTAATCCGTATTTGAG (site CAGTCGACTCG) | 0.00367
5 | CAGTCGACATGGACCGGTTTTCCCGGTAATCCGTATTTGAG (site CAGTCGACTCT) | 0.855
6 | CAGTCGGCATGGACCGGTTTTCCCGGTAATCCGTATTTGGG (site CAGTCGACTCC) | 0.027
7 | CAGTCGGCATGGACCGGTTTTCCCGGTAATCCGTATTTGGG (site CAGTCGCCTCC) | 0.0091
8 | CAGTCGGCATGGACCGGTTTTCCCGGTAATCCGTATTTGGG (site CAGTCGGCTCC) | 0.157
9 | CAGTCGGCATGGACCGGTTTTCCCGGTAATCCGTATTTGGG (site CAGTCGTCTCC) | 0.0153
10 | CAGTCGGCATGGACCGGTTTTCCCGGTAATCCGTATTTGGT (site CAGTCGGCTAC) | 0.814
11 | CAGTGTACATGGACCGGTTTTCCCGGTAATCCGTATTTGCA (site CAGTGTACTTG) | 2.48
12 | CAGTTACCATGGACCGGTTTTCCCGGTAATCCGTATTTGCC (site CAGTTACCTGG) | 0
13 | CAGTTCTCATGGACCGGTTTTCCCGGTAATCCGTATTTGGC (site CAGTTCTCTGC) | 3.27
14 | CAGTTGCCATGGACCGGTTTTCCCGGTAATCCGTATTTGGT (site CAGTTGCCTAC) | 0.0159
15 | CAGTTGTCATGGACCGGTTTTCCCGGTAATCCGTATTTGCG (site CAGTTGTCTCG) | 3.14
16 | CATAACCCATGGACCGGTTTTCCCGGTAATCCGTATTTGAT (site CATAACCCTAT) | 1.19
17 | CATAATCCATGGACCGGTTTTCCCGGTAATCCGTATTTGTT (site CATAATCCTAA) | 0.529
18 | CATAATCCATGGACCGGTTTTCCCGGTAATCCGTATTTGTT (site CGGAATCCTAA) | 0.00373
19 | CATAGCACATGGACCGGTTTTCCCGGTAATCCGTATTTGTA (site CATAGCACTTA) | 1.96
20 | CATATCCCATGGACCGGTTTTCCCGGTAATCCGTATTTGAC (site CATATCCCTGT) | 0.73
21 | CATCACACATGGACCGGTTTTCCCGGTAATCCGTATTTGGG (site CATCACACTCC) | 0.0249
22 | CATCGCCCATGGACCGGTTTTCCCGGTAATCCGTATTTGGT (site CATCGCCCTAC) | 0.296
23 | CATCTGACATGGACCGGTTTTCCCGGTAATCCGTATTTGCG (site CATCTGACTCG) | 1.45
24 | CATCTGTCATGGACCGGTTTTCCCGGTAATCCGTATTTGAC (site CATCTGTCTGT) | 0
25 | CATCTTGCATGGACCGGTTTTCCCGGTAATCCGTATTTGGT (site CATCTTGCTAC) | 0.825

Row | Sequence | recombinant UMI read abundance (log10)
26 | CATGACTCATGGACCGGTTTTCCCGGTAATCCGTATTTGTT (site CATGACTCTAA) | 2.08
27 | CATGCCTCATGGACCGGTTTTCCCGGTAATCCGTATTTGTG (site CATGCCTCTCA) | 1.43
28 | CATGGCTCATGGACCGGTTTTCCCGGTAATCCGTATTTGCG (site CATGGCTCTCG) | 2.15
29 | CATGTAACATGGACCGGTTTTCCCGGTAATCCGTATTTGCT (site AATGTAACTAG) | 0.624
30 | CATGTAACATGGACCGGTTTTCCCGGTAATCCGTATTTGCT (site CATGTAACTAG) | 2.28
31 | CATGTAACATGGACCGGTTTTCCCGGTAATCCGTATTTGCT (site GATGTAACTAG) | 0.28
32 | CATGTAACATGGACCGGTTTTCCCGGTAATCCGTATTTGCT (site TATGTAACTAG) | 0.869
33 | CATGTGTCATGGACCGGTTTTCCCGGTAATCCGTATTTGAC (site AATGTGTCTGT) | 0
34 | CATGTGTCATGGACCGGTTTTCCCGGTAATCCGTATTTGAC (site CATGTGTCTGT) | 0.602
35 | CATGTGTCATGGACCGGTTTTCCCGGTAATCCGTATTTGAC (site GATGTGTCTGT) | 0
36 | CATGTGTCATGGACCGGTTTTCCCGGTAATCCGTATTTGAC (site TATGTGTCTGT) | 0.00981
37 | CATGTTCCATGGACCGGTTTTCCCGGTAATCCGTATTTGTG (site CATGTTCCTCA) | 0.0131
38 | CATTAGTCATGGACCGGTTTTCCCGGTAATCCGTATTTGTT (site CATTAGTCTAA) | 2.03
39 | CATTCAACATGGACCGGTTTTCCCGGTAATCCGTATTTGCC (site CATTCAACTGG) | 0.426
40 | CATTCCTCATGGACCGGTTTTCCCGGTAATCCGTATTTGCC (site CAATCCTCTGG) | 1.59
41 | CATTCCTCATGGACCGGTTTTCCCGGTAATCCGTATTTGCC (site CACTCCTCTGG) | 1.09
42 | CATTCCTCATGGACCGGTTTTCCCGGTAATCCGTATTTGCC (site CAGTCCTCTGG) | 0
43 | CATTCCTCATGGACCGGTTTTCCCGGTAATCCGTATTTGCC (site CATTCCTCTGG) | 1.47
44 | CATTCGACATGGACCGGTTTTCCCGGTAATCCGTATTTGCG (site CATTCGACTCG) | 0.32
45 | CATTGACCATGGACCGGTTTTCCCGGTAATCCGTATTTGAG (site CATTGACCTCT) | 0.0215
46 | CATTGCACATGGACCGGTTTTCCCGGTAATCCGTATTTGTA (site CATTGCACTTA) | 0.726
47 | CATTGGACATGGACCGGTTTTCCCGGTAATCCGTATTTGCC (site CATTGGACTGG) | 1.73
48 | CATTTATCATGGACCGGTTTTCCCGGTAATCCGTATTTGCA (site GCCCGTCCTAC) | 0.031
49 | CATTTATCATGGACCGGTTTTCCCGGTAATCCGTATTTGGC (site CATTTATCTGC) | 1.72
50 | CATTTCCCATGGACCGGTTTTCCCGGTAATCCGTATTTGCT (site CAATTCCCTAG) | 0.464

Row | Sequence | recombinant UMI read abundance (log10)
51 | CATTTCCCATGGACCGGTTTTCCCGGTAATCCGTATTTGCT (site CACTTCCCTAG) | 0.691
52 | CATTTCCCATGGACCGGTTTTCCCGGTAATCCGTATTTGCT (site CAGTTCCCTAG) | 0.0164
53 | CATTTCCCATGGACCGGTTTTCCCGGTAATCCGTATTTGCT (site CATTTCCCTAG) | 0.788
54 | CATTTGGCATGGACCGGTTTTCCCGGTAATCCGTATTTGTG (site AATTTGGCTCA) | 0.0432
55 | CATTTGGCATGGACCGGTTTTCCCGGTAATCCGTATTTGTG (site CATTTGGCTCA) | 0.552
56 | CATTTGGCATGGACCGGTTTTCCCGGTAATCCGTATTTGTG (site GATTTGGCTCA) | 0.00627
57 | CATTTGGCATGGACCGGTTTTCCCGGTAATCCGTATTTGTG (site TATTTGGCTCA) | 0.106
58 | CCAAACACATGGACCGGTTTTCCCGGTAATCCGTATTTGAT (site CCAAACACTAT) | 1.8
59 | CCAAAGGCATGGACCGGTTTTCCCGGTAATCCGTATTTGGC (site CCAAAGGCTGC) | 0
60 | CCAAATACATGGACCGGTTTTCCCGGTAATCCGTATTTGGC (site CCAAATACTGC) | 0
61 | CCAAATACATGGACCGGTTTTCCCGGTAATCCGTATTTGGC (site CCCAATACTGC) | 0
62 | CCAAATACATGGACCGGTTTTCCCGGTAATCCGTATTTGGC (site CCGAATACTGC) | 0
63 | CCAAATACATGGACCGGTTTTCCCGGTAATCCGTATTTGGC (site CCTAATACTGC) | 0
64 | CCAAATCCATGGACCGGTTTTCCCGGTAATCCGTATTTGTT (site CCAAATCCTAA) | 0
65 | CCAAATCCATGGACCGGTTTTCCCGGTAATCCGTATTTGTT (site CGGAATCCTAA) | 0
66 | CCAACTTCATGGACCGGTTTTCCCGGTAATCCGTATTTGGA (site CCAACTTCTTC) | 0
67 | CCAAGCACATGGACCGGTTTTCCCGGTAATCCGTATTTGCT (site CCAAGCACTAG) | 0.32
68 | CCAAGGACATGGACCGGTTTTCCCGGTAATCCGTATTTGTT (site CCAAGGACTAA) | 0.865
69 | CCAAGGTCATGGACCGGTTTTCCCGGTAATCCGTATTTGTT (site CCAAGGTCTAA) | 2.12
70 | CCAAGTGCATGGACCGGTTTTCCCGGTAATCCGTATTTGAT (site CCAAGTGCTAT) | 1.57
71 | CCAAGTGCATGGACCGGTTTTCCCGGTAATCCGTATTTGAT (site CCACGTGCTAT) | 0.00443
72 | CCAAGTGCATGGACCGGTTTTCCCGGTAATCCGTATTTGAT (site CCAGGTGCTAT) | 0.02
73 | CCAAGTGCATGGACCGGTTTTCCCGGTAATCCGTATTTGAT (site CCATGTGCTAT) | 0
74 | CCAATATCATGGACCGGTTTTCCCGGTAATCCGTATTTGTC (site CCAATATCTGA) | 1.16
75 | CCAATATCATGGACCGGTTTTCCCGGTAATCCGTATTTGTC (site CCCATATCTGA) | 0.0129
